Reference: patent US12060347B2 (BRISTOL-MYERS SQUIBB COMPANY, priority 2016, dated 2024)

Biological target: T1, human PAR4 (Homo sapiens, UniProt Q96RI0)
T1 construct: expressed in transfected cells; host or cells: HEK293 PAR4 Clone 1.2A (BMS Arctic ID 383940)
T1 sequence (Q96RI0 18-385): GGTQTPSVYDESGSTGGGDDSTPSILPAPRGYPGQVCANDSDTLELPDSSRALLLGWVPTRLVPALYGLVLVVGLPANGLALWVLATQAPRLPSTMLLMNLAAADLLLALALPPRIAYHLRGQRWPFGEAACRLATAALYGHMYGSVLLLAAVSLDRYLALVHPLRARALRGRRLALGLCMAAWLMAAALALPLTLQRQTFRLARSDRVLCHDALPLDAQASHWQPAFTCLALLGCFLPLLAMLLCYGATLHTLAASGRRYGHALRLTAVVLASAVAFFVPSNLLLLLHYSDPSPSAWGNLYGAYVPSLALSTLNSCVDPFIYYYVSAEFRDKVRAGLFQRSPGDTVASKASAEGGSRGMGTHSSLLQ
Test: PAR4 FLIPR assay: antagonism of agonist-peptide-induced calcium mobilization in PAR4-expressing HEK293 cells
Assay type: cell-based
Conditions: H-Ala-Phe(4-F)-[…]NH2-induced intracellular calcium mobilization, 11-point curves

Compound | IC50 [nM]
COc1cnc2c(-c3nc4c(s3)CCCCC4)cc(C)cc2n1 [Example 137, 2-(2-methoxy-7-methylquinoxalin-5-yl)-5,6,7,8-tetrahydro-4H-cyclohepta[d]thiazole] | 29
COc1cnc2c(-c3nc4c(Cl)c(F)c(OCCOC(=O)Nc5cnc6[nH]ccc6c5)cc4s3)cc(C)cc2n1 [Example 359, 2-((4-chloro-5-fluoro-2-(2-methoxy-7-methylquinoxalin-5-yl)benzo[d]thiazol-6-yl)oxy)ethyl 1H-pyrrolo[2,3-b]pyridin-5-ylcarbamate] | 170
COc1cnc2c(-c3nc4c(C)cc(OCC(=O)NCc5ccccc5)cc4s3)cc(C)cc2n1 [Example 36, N-benzyl-2-((2-(2-methoxy-7-methylquinoxalin-5-yl)-4-methylbenzo[d]thiazol-6-yl)oxy)acetamide] | 7.7
COc1cnc2c(-c3nc4cc(C)c(OC)cc4s3)cc(C)cc2n1 [Example 279, 6-methoxy-2-(2-methoxy-7-methylquinoxalin-5-yl)-5-methylbenzo[d]thiazole] | 18
COc1cnc2c(-c3nc4c(C)cc(OC[C@@H](C)OC(=O)Nc5cnc(C)nc5)nc4s3)cc(C)cc2n1 [Example 737, (R)-1-((2-(2-methoxy-7-methylquinoxalin-5-yl)-7-methylthiazolo[5,4-b]pyridin-5-yl)oxy) propan-2-yl (2-methylpyrimidin-5-yl)carbamate] | 8.1
COc1cnc2c(-c3nc4c(Cl)c(F)c(OCCOC(=O)Nc5nsc(OC)n5)cc4s3)cc(C)cc2n1 [Example 363, 2-((4-chloro-5-fluoro-2-(2-methoxy-7-methylquinoxalin-5-yl)benzo[d]thiazol-6-yl)oxy)ethyl (5-methoxy-1,2,4-thiadiazol-3-yl)carbamate] | 1700

These reach a lower IC50. Values come first.

IC50 [nM] | Compound
1.9 | COc1cnc2c(-c3nc4cc(F)c(O[C@@H](C)[C@@H](C)OC(=O)Nc5ccnc(C(=O)N(C)C)c5)cc4s3)cc(C)cc2n1 [Example 467, (2R,3S)-3-((5-fluoro-2-(2-methoxy-7-methylquinoxalin-5-yl)benzo[d]thiazol-6-yl)oxy)butan-2-yl (2-(dimethylcarbamoyl)pyridin-4-yl)carbamate]
1.5 | COc1cnc2c(-c3nc4cc(F)c(O[C@@H](C)[C@@H](C)OC(=O)Nc5ccc(CCO)nc5)cc4s3)cc(C)cc2n1 [Example 387, (2R,3S)-3-((5-fluoro-2-(2-methoxy-7-methylquinoxalin-5-yl)benzo[d]thiazol-6-yl)oxy)butan-2-yl (6-(2-hydroxyethyl)pyridin-3-yl)carbamate]
2 | COc1cnc2c(-c3nc4c(Cl)c(F)c(OC[C@@H](C)OC(=O)Nc5cnc(C#N)nc5)cc4s3)cc(C)cc2n1 [Example 400, (R)-1-((4-chloro-5-fluoro-2-(2-methoxy-7-methylquinoxalin-5-yl)benzo[d]thiazol-6-yl)oxy)propan-2-yl (2-cyanopyrimidin-5-yl)carbamate]
0.7 | COc1cnc2c(-c3nc4cc(F)c(OC[C@@H](C)OC(=O)Nc5cccnc5)nc4s3)cc(C)cc2n1 [Example 684, (R)-1-((6-fluoro-2-(2-methoxy-7-methylquinoxalin-5-yl)thiazolo[5,4-b]pyridin-5-yl)oxy) propan-2-yl pyridin-3-ylcarbamate]
4.5 | COCc1cnc2c(-c3nc4c(s3)C(O)C(C)(C)CC4)cc(C)cc2n1 (stereo not shown) [Example 145, 2-(2-(methoxymethyl)-7-methylquinoxalin-5-yl)-6,6-dimethyl-4,5,6,7-tetrahydrobenzo[d] thiazol-7-ol]
7 | COCc1cnc2c(-c3nc4cnccc4s3)cc(C)cc2n1 [Example 146, 2-(2-(methoxymethyl)-7-methylquinoxalin-5-yl)thiazolo[4,5-c]pyridine]
0.9 | COc1cnc2c(-c3nc4cc(F)c(OC[C@@H](C)OC(=O)Nc5ccc(OCCO)nc5)cc4s3)cc(C)cc2n1 [Example 572, (R)-1-((5-fluoro-2-(2-methoxy-7-methylquinoxalin-5-yl)benzo[d]thiazol-6-yl)oxy)propan-2-yl (6-(2-hydroxyethoxy)pyridin-3-yl)carbamate]
